According to patent US7205382B2, “Peptides, the production and use thereof for binding immunoglobulins” (Fresenius Medical Care Affina GmbH, priority 2000, dated 2007):
Bridge positions count the residues as written; N and C are the ends. Square brackets hold non-standard residues; d marks the D form. Ends that are not written are not given here. cellulose = not defined here; βAla = NCCC(=O)O

Key:
Assay type in all cases: binding
Parameters in all cases: key: No binding of immunoglobulin for the defined peptide variant, detection negative: 0; Binding of immunoglobulin for the defined peptide variant, detection positive: +
[1] = tested on: serum albumin; assay: Cellulose-immobilized 13-mer peptide variants incubated with serum albumin (negative control), anti-human IgG-AP detection; conditions: blocking buffer without addition, 3 h room temperature
Outline: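 Membrane-bound peptides, spaced by two β-alanines, are probed with 1 μg/ml IgG-Fc or 1:10,000 serum for 3 h at room temperature; blocking buffer alone acts as control. Detection uses anti-human IgG-AP (1.2 μg/ml) and NBT/BCIP.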

[2] = tested on: human IgG-Fc; assay: Cellulose-immobilized 13-mer peptide variants incubated with human IgG-Fc, anti-human IgG-AP detection; conditions: IgG-Fc 1 μg/ml in blocking buffer, 3 h room temperature
Outline: (§1)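 Read-out was colorimetric NBT/BCIP staining (developing buffer pH 9.5) after alkaline phosphatase-conjugated anti-human IgG at 1.2 μg/ml. Before this, the immobilized peptides had been incubated 3 h at room temperature with 1 μg/ml IgG-Fc, 1:10,000 diluted serum, or albumin-containing blocking buffer without addition.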

[3] = tested on: immunoglobulins in human plasma; assay: Cellulose-immobilized 13-mer peptide variants incubated with human plasma, anti-human IgG-AP detection; conditions: human plasma as sample, diluted 1:10,000 in blocking buffer, 3 h room temperature
Outline: as §1

| Result for incubation with serum albumin (immunoglobulin binding detection) [1] | Result for incubation with human IgG-Fc (immunoglobulin binding detection) [2] | Result for incubation with human plasma (immunoglobulin binding detection) [3] | Substance |
| --- | --- | --- | --- |
| 0 | + | + | 01E: cellulose-bound 13-mer variant ECAWHLGELVWCT-(βA)(βA) (ECAWHLGELVWCT-{βAla-βAla-cellulose}; disulfide 2-12 (inferred); reading uncertain; also: printed as ECAWHLGELVWCT-(βA)(βA)) |
| 0 | 0 | 0 | 01V: cellulose-bound 13-mer variant VCAWHLGELVWCT-(βA)(βA) (VCAWHLGELVWCT-{βAla-βAla-cellulose}; disulfide 2-12 (inferred); reading uncertain; also: printed as VCAWHLGELVWCT-(βA)(βA)) |
| 0 | 0 | 0 | 02Q: cellulose-bound 13-mer variant DQAWHLGELVWCT-(βA)(βA) (DQAWHLGELVWCT[βAla][βAla]; not fully specified; printed as DQAWHLGELVWCT-(βA)(βA); also: cellulose-bound) |
| 0 | + | + | 06Q: cellulose-bound 13-mer variant DCAWHQGELVWCT-(βA)(βA) (DCAWHQGELVWCT-{βAla-βAla-cellulose}; disulfide 2-12 (inferred); not fully specified (N-terminus); printed as DCAWHQGELVWCT-(βA)(βA); reading uncertain) |
| 0 | 0 | 0 | 03C: cellulose-bound 13-mer variant DCCWHLGELVWCT-(βA)(βA) (DCCWHLGELVWCT-{βAla-βAla-cellulose}; disulfide (positions not given here); not fully specified; printed as DCCWHLGELVWCT-(βA)(βA); reading uncertain) |
| 0 | 0 | 0 | 03N: cellulose-bound 13-mer variant DCNWHLGELVWCT-(βA)(βA) (DCNWHLGELVWCT-{βAla-βAla-cellulose}; disulfide 2-12 (inferred); reading uncertain; also: printed as DCNWHLGELVWCT-(βA)(βA)) |
| 0 | + | 0 | 04Q: cellulose-bound 13-mer variant DCAQHLGELVWCT-(βA)(βA) (disulfide 2-12 (inferred); not fully specified (N-terminus, C-terminus); printed as DCAQHLGELVWCT-(βA)(βA); also: cellulose-bound) |
| 0 | + | 0 | 09Q: cellulose-bound 13-mer variant DCAWHLGEQVWCT-(βA)(βA) (DCAWHLGEQVWCT-{βAla-βAla-cellulose}; disulfide 2-12 (inferred); reading uncertain; also: printed as DCAWHLGEQVWCT-(βA)(βA)) |
| 0 | 0 | 0 | 05W: cellulose-bound 13-mer variant DCAWWLGELVWCT-(βA)(βA) (disulfide 2-12 (inferred); not fully specified (N-terminus, C-terminus); printed as DCAWWLGELVWCT-(βA)(βA); also: cellulose-bound) |
| 0 | 0 | 0 | 07Q: cellulose-bound 13-mer variant DCAWHLQELVWCT-(βA)(βA) (DCAWHLQELVWCT-{βAla-βAla-cellulose}; disulfide 2-12 (inferred); not fully specified (N-terminus); printed as DCAWHLQELVWCT-(βA)(βA); reading uncertain) |
| 0 | + | + | 06M: cellulose-bound 13-mer variant DCAWHMGELVWCT-(βA)(βA) (DCAWHMGELVWCT-{βAla-βAla-cellulose}; disulfide 2-12 (inferred); not fully specified (N-terminus); printed as DCAWHMGELVWCT-(βA)(βA); reading uncertain) |
| 0 | 0 | 0 | 10W: cellulose-bound 13-mer variant DCAWHLGELWWCT-(βA)(βA) (DCAWHLGELWWCT-{βAla-βAla-cellulose}; disulfide 2-12 (inferred); reading uncertain; also: printed as DCAWHLGELWWCT-(βA)(βA)) |
| 0 | 0 | 0 | 02H: cellulose-bound 13-mer variant DHAWHLGELVWCT-(βA)(βA) (DHAWHLGELVWCT[βAla][βAla]; not fully specified; printed as DHAWHLGELVWCT-(βA)(βA); also: cellulose-bound) |
| 0 | 0 | 0 | 08I: cellulose-bound 13-mer variant DCAWHLGILVWCT-(βA)(βA) (DCAWHLGILVWCT-{βAla-βAla-cellulose}; disulfide 2-12 (inferred); not fully specified (N-terminus); printed as DCAWHLGILVWCT-(βA)(βA); reading uncertain) |
| 0 | 0 | 0 | 09T: cellulose-bound 13-mer variant DCAWHLGETVWCT-(βA)(βA) (DCAWHLGETVWCT-{βAla-βAla-cellulose}; disulfide 2-12 (inferred); reading uncertain; also: printed as DCAWHLGETVWCT-(βA)(βA)) |
| 0 | 0 | 0 | 03L: cellulose-bound 13-mer variant DCLWHLGELVWCT-(βA)(βA) (DCLWHLGELVWCT-{βAla-βAla-cellulose}; disulfide 2-12 (inferred); reading uncertain; also: printed as DCLWHLGELVWCT-(βA)(βA)) |
| 0 | 0 | 0 | 11C: cellulose-bound 13-mer variant DCAWHLGELVCCT-(βA)(βA) (DCAWHLGELVCCT-{βAla-βAla-cellulose}; not fully specified (bridges); printed as DCAWHLGELVCCT-(βA)(βA); cysteine pairing not given here; reading uncertain) |
| 0 | 0 | 0 | 05T: cellulose-bound 13-mer variant DCAWTLGELVWCT-(βA)(βA) (disulfide 2-12 (inferred); not fully specified (N-terminus, C-terminus); printed as DCAWTLGELVWCT-(βA)(βA); also: cellulose-bound) |
| 0 | 0 | 0 | 10T: cellulose-bound 13-mer variant DCAWHLGELTWCT-(βA)(βA) (DCAWHLGELTWCT-{βAla-βAla-cellulose}; disulfide 2-12 (inferred); reading uncertain; also: printed as DCAWHLGELTWCT-(βA)(βA)) |
| 0 | 0 | 0 | 02P: cellulose-bound 13-mer variant DPAWHLGELVWCT-(βA)(βA) (DPAWHLGELVWCT[βAla][βAla]; not fully specified; printed as DPAWHLGELVWCT-(βA)(βA); also: cellulose-bound) |
| 0 | 0 | 0 | 02I: cellulose-bound 13-mer variant DIAWHLGELVWCT-(βA)(βA) (DIAWHLGELVWCT[βAla][βAla]; not fully specified; printed as DIAWHLGELVWCT-(βA)(βA); also: cellulose-bound) |
